The subject of data set [1] is newly diagnosed multiple myeloma. Nature of the data set: Combination therapy of lenalidomide and dexamethasone in patients with newly diagnosed multiple myeloma. The format is in vivo. An excerpt: Most adverse events were manageable with dose modification. The combination therapy is an effective first-line therapy for the treatment of patients with newly diagnosed multiple myeloma.

The next data set relates to multiple myeloma. Nature of the data set: Combination therapy of lenalidomide and CDK4/CDK6 inhibitor (PD 0332991) in patients with multiple myeloma. The data set is classed as in vivo. The method, then: Lenalidomide and a CDK4/CDK6 inhibitor control tumor expansion and enhance tumor killing in the treatment of multiple myeloma. Patients with multiple myeloma are treated with lenalidomide (Revlimid®, 5 to 25 mg/day orally on days 1-21 in a 28 days cycle) and a CDK4/CDK6 inhibitor (PD 0332991, 25 to 150 mg/day orally on days 1-21 in a 28 days cycle). Maintenance treatment are continued until the disease progression.

The mark [2] stands for this setting: lenalidomide in combination with dexamethasone, newly diagnosed multiple myeloma.

Regarding `Nc1cccc2c1CN(C1CCC(=O)NC1=O)C2=O` (stereo not drawn) [lenalidomide, 3-(4-amino-1-oxo-1,3-dihydro-isoindol-2-yl)-piperidine-2,6-dione], in data set [1] (setting [2]), the “overall response rate and complete response” value was “high overall response rate and complete response”; the “progression-free survival at 1 year” value is “significantly increased progression-free survival at 1 year”; the tolerability entry is reported as “well tolerated”. In addition, the patient response entry in data set [1] (newly diagnosed multiple myeloma patients, lenalidomide 25 mg/day days 1-21 of 28-day cycle in combination with dexamethasone 40 mg/day (days 1-4, 9-12, 17-20 or days 1, 8, 15, 22)) was “most of patients responded”. Further, in the data set with multiple myeloma (Revlimid 5 to 25 mg/day orally days 1-21 of 28-day cycle in combination with PD 0332991 25 to 150 mg/day orally days 1-21), the “activity of the therapy in multiple myeloma patients” value is reported as “highly active”. In addition, in the data set with multiple myeloma (Revlimid 5 to 25 mg/day orally in combination with PD 0332991 25 to 150 mg/day orally, multiple myeloma patients), the tolerability entry is “well tolerated”.

Source of the values: US20140031325A1, “COMBINATION THERAPY WITH LENALIDOMIDE AND A CDK INHIBITOR FOR TREATING MULTIPLE MYELOMA” (Celgene Corporation, priority 2010, published 2014).
